# Where two headings read alike, the source gives them in different places.
# What was measured:
# [1] = Solubility in FassIF and FessIF solutions; format: physicochemical; details: thermodynamic from solid, 37° C.
# From the text: Reagents: dimethyl sulfoxide (chromatographically pure, Sigma-Aldrich, Cat. No. 472301-4X4L), ethanol (chromatographically pure, CNW, Cat. No. 4.016362.4000), acetonitrile (chromatographically pure, FISHER, Cat. No. A998-4), NaH2PO4·2H2O (analytically pure, Sinopharm Chemical Reagent Co., Ltd., Cat. No. 20040717), ammonium acetate (chromatographically pure, ALADDIN, Cat. No. 17836-250G), FaSSIF/FeSSIF/FaSSGF powder (Biorelevant, Cat. No. FFF02), FaSSIF buffer concentrate (Biorelevant, Cat. No. FASBUF), FeSSIF buffer concentrate (Biorelevant, Cat. No. FESBUF), and ultrapure water (made in-house using an ELGA CHORUS laboratory water purification system).
# Instrument: Agilent 1200 DAD liquid chromatograph (Agilent, U.S.)
# FaSSIF solution: 2.0825 g of FaSSIF medium solution and 48.055 g of ultrapure water were weighed into a 50-mL beaker, and 0.112 g of FaSSIF/FeSSIF/FaSSGF powder was then added to the beaker. The mixture was stirred to dissolve the powder, and the solution was then equilibrated by standing for 2 h before use (the solution should be used within 48 h). […]
# 3.1. […] 10 μL of the stock solution (concentration 10 mM, dissolved in DMSO) was precisely measured out and well mixed with 990 μL of an organic solvent mixture (usually DMSO:acetonitrile:ethanol=1:1:1) in a 2-mL sample flask to form a 100 μM clear sample solution. […]
# [2] = target: Nav1.8 ion channel stably expressed on HEK293 cells (Homo sapiens (Human), UniProt Q9Y5Y9); test: Inhibitory activity against Nav1.8, manual patch clamp; format: cell-based; details: resting protocol (-80 mV to 10 mV), 1 μM TTX, read-out: IC50 for the inhibition of Nav1.8 channel activity
# From the text: The objective of the experiment was to investigate the effects of the compounds on the Nav1.8 ion channel in ex vivo experiments. The Nav1.8 ion channel is stably expressed on HEK293 cells. After the Nav1.8 current stabilized, the effects of the compounds on the Nav1.8 ion channel were obtained by comparing the magnitudes of the Nav1.8 currents before and after the compounds were applied.
# • 1) A patch clamp amplifier: patch clamp PC-505B (WARNER instruments)/MultiClamp 700A (Axon instrument) • 2) A digital-to-analog converter: Digidata 1440A (Axon CNS)/Digidata 1550A (Axon instruments) • 3) A micromanipulator: MP-225 (SUTTER instrument) • 4) An inverted microscope: TL4 (Olympus) • 5) Glass micropipette puller: PC-10 (NARISHIGE) • 6) Microelectrode glass capillaries: B12024F (Wuhan VitalSense Scientific Instruments Co., Ltd.) • 7) Dimethyl sulfoxide (DMSO) D2650 (Sigma-Aldrich) • 8) TTX AF3014 (Affix Scientific)
# The compounds for preparing the intracellular and extracellular fluids were purchased from Sigma (St. Louis, MO) except for the NaOH and KOH for the acid-base titrations. The extracellular fluid (mM) was: NaCl, 137; KCl, 4; CaCl2, 1.8; MgCl2, 1; HEPES, 10; glucose, 10; pH 7.4 (NaOH titration). The intracellular fluid (mM) was: aspartic acid, 140; MgCl2, 2; EGTA, 11; HEPES, 10; pH 7.2 (CsOH titration). All test and control compound solutions contained 1 μM TTX.
# The test compounds were stored at a concentration of 9 mM in dimethyl sulfoxide (DMSO). On the testing day, the compounds were further dissolved in the extracellular fluid to prepare the required concentrations.
# 1) After the compounds were prepared into solutions with specified concentrations, the compound solutions were sequentially added to channels in ascending order according to their concentrations, and each channel was labeled.
# 2) A cell was transferred to the perfusion chamber. Positive pressure was applied inside the electrode, and the electrode tip was brought into contact with the cell. The three-way valve of the suction device was switched to the state where all three ways were open, and negative pressure was then applied to the electrode, allowing a high-resistance seal to form between the electrode and the cell. The application of negative pressure was continued to rupture the cell membrane, leading to the formation of a current pathway.
# 3) After the cell membrane rupture current stabilized, perfusion was performed with different concentrations in sequence. If the current remained stable for at least one minute, perfusion was performed with the next concentration.
# 4) The perfusion chamber was cleaned. The perfusion chamber was rinsed with the compound solutions in descending order according to their concentrations, with each concentration applied for 20 s. Finally, the perfusion chamber was rinsed with the extracellular fluid for 1 min.
# The cell was clamped at −80 mV and then depolarized to 10 mV using a square wave lasting for 10 ms to obtain a Nav1.8 current. This procedure was repeated once every 5 seconds. The maximum current induced by the square wave was detected. After the current stabilized, perfusion was performed with the test compounds. After the reaction stabilized, the strength of the blocking was calculated.
# The data were stored on a computer system and analyzed. Data acquisition and analysis were performed using pCLAMP 10 (Molecular Devices, Union City, CA), and the results were reviewed by a manager. “Current stabilized” means that the changes in current over time were within a limited range. The magnitude of the current after stabilization was used to calculate the effect of the compound at this […].
# The inhibitory activity of the compounds of the present disclosure against Nav1.8 was determined through the above assay.
smiles,measurement,setting,value
"COc1c([C@H]2[C@H](C(=O)Nc3ccnc(C(=N)N)c3)O[C@@](C)(C(F)(F)F)[C@H]2C)ccc(F)c1F [Example 20, (2R,3S,4S,5R)—N-(2-Carbamimidoylpyridin-4-yl)-3-(3,4-difluoro-2-methoxyphenyl)-4,5-dimethyl-5-(trifluoromethyl)tetrahydrofuran-2-carboxamide]",solubility at 24 h,"[1]; FassIF solution, read-out: Solubility in FassIF solution",308 µM
same,solubility at 24 h,"[1]; FessIF solution, read-out: Solubility in FessIF solution",2410 µM
same,IC50,[2],0.24 nM

# — patent US20260055088A1, “HETEROCYCLIC COMPOUND, METHOD FOR PREPARING SAME, AND PHARMACEUTICAL USE THEREOF” (Jiangsu Hengrui Pharmaceuticals Co., Ltd., priority 2022, published 2026)
